The NIST ThermoML archive (doi:10.1021/je049788h)
± gives the expanded uncertainty stated by the source.

Assay: xn = mol fraction of the nth substance listed
Settings: 101.3 kPa, Liquid; for viscosity: Capillary tube (Ostwald / Ubbelohde) method; for mass density: Vibrating tube method

COCCOCCOCCOCCOC [2,5,8,11,14-pentaoxapentadecane] + O
Settings	mass density, 298.15 K [kg/m3]	mass density, 313.15 K [kg/m3]	mass density, 323.15 K [kg/m3]	mass density, 333.15 K [kg/m3]	mass density, 343.15 K [kg/m3]	viscosity, 298.15 K [mPa·s]	viscosity, 313.15 K [mPa·s]	viscosity, 323.15 K [mPa·s]	viscosity, 333.15 K [mPa·s]	viscosity, 343.15 K [mPa·s]
x1 = 0.0199	1013.95 ± 2.6	1006.73 ± 2.6	1001.25 ± 2.6	995.13 ± 2.6	988.58 ± 2.6	3.11 ± 0.09	2.11 ± 0.06	1.71 ± 0.05	1.41 ± 0.04	1.18 ± 0.03
x1 = 0.051	1020.21 ± 2.6	1011.89 ± 2.5	1005.7 ± 2.5	999.35 ± 2.5	991.92 ± 2.5	4.04 ± 0.11	2.64 ± 0.07	2.12 ± 0.06	1.69 ± 0.05	1.41 ± 0.04
x1 = 0.1066	1038.9 ± 2.5	1025.7 ± 2.5	1016.67 ± 2.4	1007.47 ± 2.4	998.09 ± 2.4	6.17 ± 0.16	3.62 ± 0.1	2.7 ± 0.07	2.08 ± 0.05	1.67 ± 0.04
x1 = 0.195	1033.66 ± 2.3	1019.8 ± 2.2	1010.4 ± 2.2	1000.92 ± 2.2	991.28 ± 2.2	6.22 ± 0.15	3.77 ± 0.09	2.86 ± 0.07	2.24 ± 0.05	1.8 ± 0.04
x1 = 0.3008	1026.07 ± 2	1012.12 ± 2	1002.75 ± 2	993.27 ± 2	983.67 ± 1.9	5.29 ± 0.12	3.39 ± 0.08	2.63 ± 0.06	2.12 ± 0.05	1.73 ± 0.04
x1 = 0.4088	1020.42 ± 1.8	1006.46 ± 1.8	997.07 ± 1.7	987.6 ± 1.7	978.07 ± 1.7	4.59 ± 0.1	3.08 ± 0.06	2.42 ± 0.05	1.97 ± 0.04	1.65 ± 0.03
x1 = 0.5116	1016.56 ± 1.6	1002.6 ± 1.5	993.21 ± 1.5	983.77 ± 1.5	974.27 ± 1.5	4.14 ± 0.08	2.82 ± 0.05	2.26 ± 0.04	1.86 ± 0.04	1.56 ± 0.03
x1 = 0.6252	1013.52 ± 1.3	999.55 ± 1.3	990.2 ± 1.3	980.79 ± 1.3	971.34 ± 1.2	3.81 ± 0.07	2.65 ± 0.05	2.15 ± 0.04	1.78 ± 0.03	1.51 ± 0.03
x1 = 0.7016	1011.64 ± 1.1	997.66 ± 1.1	988.33 ± 1.1	978.95 ± 1.1	969.56 ± 1.1	3.65 ± 0.06	2.57 ± 0.04	2.1 ± 0.03	1.75 ± 0.03	1.5 ± 0.02
x1 = 0.8037	1009.81 ± 0.92	995.86 ± 0.91	985.65 ± 0.9	977.24 ± 0.89	967.88 ± 0.88	3.51 ± 0.05	2.49 ± 0.04	2.06 ± 0.031	1.73 ± 0.03	1.47 ± 0.02
x1 = 0.9044	1008.44 ± 0.71	994.51 ± 0.7	985.23 ± 0.69	975.95 ± 0.69	966.66 ± 0.68	3.41 ± 0.05	2.44 ± 0.03	2.01 ± 0.028	1.69 ± 0.02	1.45 ± 0.02
x1 = 0.9505	1007.83 ± 0.62	993.92 ± 0.61	984.67 ± 0.6	975.4 ± 0.6	966.13 ± 0.59	3.37 ± 0.05	2.42 ± 0.03	2.002 ± 0.027	1.69 ± 0.02	1.41 ± 0.02
x1 = 1	1006.65 ± 0.51	993.28 ± 0.51	984.05 ± 0.5	974.8 ± 0.5	965.55 ± 0.49	3.38 ± 0.04	2.42 ± 0.03	2.004 ± 0.026	1.69 ± 0.02	1.42 ± 0.02
